The numbers were not newly measured in patent US20160184332A1, “MEDICAMENT COMPRISING A PHARMACEUTICAL COMBINATION OF DRUGS” (priority 2013, published 2016), which cites them from elsewhere.

The target of one series is CYP3A4 (Homo sapiens, UniProt P08684). The settings on record: minor route; primary route of metabolism is glucuronidation.
Series [1] concerns cytochrome P450 (CYP) isozymes. As to conditions: in vitro.
In series [2] the test system is human CYP 450 isoenzymes: 1A2, 2A6, 2B6, 2C9, 2C19, 2D6 and 3A4.
For series [3], the system named is uridine-5-5′-diphosphoglucuronyl transferase. As to conditions: enzyme responsible for glucuronidation.

Chain of CYP3A4 (P08684 whole entry): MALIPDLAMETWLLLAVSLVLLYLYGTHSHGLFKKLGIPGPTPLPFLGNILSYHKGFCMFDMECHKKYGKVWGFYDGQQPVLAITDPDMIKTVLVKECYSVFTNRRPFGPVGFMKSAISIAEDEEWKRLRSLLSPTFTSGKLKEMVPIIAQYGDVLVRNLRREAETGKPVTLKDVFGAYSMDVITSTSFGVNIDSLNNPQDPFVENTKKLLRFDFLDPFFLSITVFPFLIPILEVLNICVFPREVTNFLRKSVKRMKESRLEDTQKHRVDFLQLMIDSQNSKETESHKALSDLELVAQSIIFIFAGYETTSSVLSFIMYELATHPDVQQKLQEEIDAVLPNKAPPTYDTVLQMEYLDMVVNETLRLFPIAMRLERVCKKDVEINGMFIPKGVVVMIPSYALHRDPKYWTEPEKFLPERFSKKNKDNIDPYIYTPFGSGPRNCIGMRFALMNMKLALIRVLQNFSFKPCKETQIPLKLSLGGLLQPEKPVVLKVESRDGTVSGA

Regarding `C[C@@H]1CCO[C@H]2Cn3cc(C(=O)NCc4ccc(F)cc4F)c(=O)c(O)c3C(=O)N12` [dolutegravir, (4R,12aS)—N-(2,4-difluorobenzyl)-7-hydroxy-4-methyl-6,8-dioxo-3,4,6,8,12,12a-hexa-hydro-2H-pyrido[1′,2′:4,5]pyrazino[2,1-b][1,3]oxazine-9-carboxamide], the “extent to which it is a substrate of CYP3A4” value on CYP3A4 is “about 15%”. The “induction or inhibition of cytochrome P450 (CYP) isozymes” value in series [1] was “demonstrates induction or inhibition”.
With `Nc1nc(=O)n([C@@H]2CS[C@H](CO)O2)cc1F` [emtricitabine, 5-fluoro-1-(2R,5S)-[2-(hydroxymethyl)-1,3 oxathiolan-5-yl]cytosine], in series [2], the “inhibition of in vitro drug metabolism mediated by human CYP 450 isoenzymes” value is “does not inhibit”. The “inhibition of uridine-5-5′-diphosphoglucuronyl transferase” value in series [3] was “does not inhibit”.
